Columns and labels:
Assay in all cases: biochemical
Parameters in all cases: KINOMEscan competition binding panel (Eurofins DiscoverX), single concentration, % inhibition
Details in all cases: read-out: 7 at 1 µM % inhibition
[1] = biological target: T1, CDK11 (Homo sapiens, UniProt Q9BWU1)
T1 construct: gene CDK19
Outline: (§1)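 KINOMEscan selectivity screen; >400 human kinases; compound at 1 µM, single concentration.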

[2] = biological target: CDK9 (Homo sapiens, UniProt P50750)
Outline: as §1

[3] = biological target: CSNK1A1L (Homo sapiens, UniProt Q8N752)
Outline: as §1

[4] = biological target: CSNK1G1 (Homo sapiens, UniProt Q9HCP0)
Outline: as §1

[5] = biological target: CSNK1G3 (Homo sapiens, UniProt Q9Y6M4)
CSNK1G3, sequence (Q9Y6M4 whole entry): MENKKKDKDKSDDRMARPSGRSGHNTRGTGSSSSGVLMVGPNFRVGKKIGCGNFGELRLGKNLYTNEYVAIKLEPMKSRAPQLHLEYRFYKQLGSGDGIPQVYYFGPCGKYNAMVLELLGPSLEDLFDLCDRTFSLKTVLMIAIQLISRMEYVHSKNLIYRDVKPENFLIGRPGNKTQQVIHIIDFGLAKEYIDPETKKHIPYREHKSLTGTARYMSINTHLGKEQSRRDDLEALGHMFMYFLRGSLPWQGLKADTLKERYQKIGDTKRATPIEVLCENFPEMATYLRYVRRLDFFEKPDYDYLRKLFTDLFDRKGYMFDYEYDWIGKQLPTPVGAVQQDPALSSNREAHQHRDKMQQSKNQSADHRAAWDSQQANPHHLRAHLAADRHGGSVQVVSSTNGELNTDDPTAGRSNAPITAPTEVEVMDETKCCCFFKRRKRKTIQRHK
Outline: as §1

[6] = biological target: T2, ERK4 (Homo sapiens, UniProt P31152)
T2 construct: gene MAPK4
Outline: as §1

[7] = biological target: FGFR4 (Homo sapiens, UniProt P22455)
Outline: as §1

[8] = biological target: GSK3A (Homo sapiens, UniProt P49840)
Outline: as §1

[9] = biological target: T3, HPK1 (Homo sapiens, UniProt Q92918)
T3 construct: gene MAP4K1
Outline: as §1

[10] = biological target: HUNK (Homo sapiens, UniProt P57058)
Outline: as §1

[11] = biological target: KIT(D816H) (Homo sapiens, UniProt P10721, D816H)
KIT(D816H), sequence (P10721 whole entry D816H): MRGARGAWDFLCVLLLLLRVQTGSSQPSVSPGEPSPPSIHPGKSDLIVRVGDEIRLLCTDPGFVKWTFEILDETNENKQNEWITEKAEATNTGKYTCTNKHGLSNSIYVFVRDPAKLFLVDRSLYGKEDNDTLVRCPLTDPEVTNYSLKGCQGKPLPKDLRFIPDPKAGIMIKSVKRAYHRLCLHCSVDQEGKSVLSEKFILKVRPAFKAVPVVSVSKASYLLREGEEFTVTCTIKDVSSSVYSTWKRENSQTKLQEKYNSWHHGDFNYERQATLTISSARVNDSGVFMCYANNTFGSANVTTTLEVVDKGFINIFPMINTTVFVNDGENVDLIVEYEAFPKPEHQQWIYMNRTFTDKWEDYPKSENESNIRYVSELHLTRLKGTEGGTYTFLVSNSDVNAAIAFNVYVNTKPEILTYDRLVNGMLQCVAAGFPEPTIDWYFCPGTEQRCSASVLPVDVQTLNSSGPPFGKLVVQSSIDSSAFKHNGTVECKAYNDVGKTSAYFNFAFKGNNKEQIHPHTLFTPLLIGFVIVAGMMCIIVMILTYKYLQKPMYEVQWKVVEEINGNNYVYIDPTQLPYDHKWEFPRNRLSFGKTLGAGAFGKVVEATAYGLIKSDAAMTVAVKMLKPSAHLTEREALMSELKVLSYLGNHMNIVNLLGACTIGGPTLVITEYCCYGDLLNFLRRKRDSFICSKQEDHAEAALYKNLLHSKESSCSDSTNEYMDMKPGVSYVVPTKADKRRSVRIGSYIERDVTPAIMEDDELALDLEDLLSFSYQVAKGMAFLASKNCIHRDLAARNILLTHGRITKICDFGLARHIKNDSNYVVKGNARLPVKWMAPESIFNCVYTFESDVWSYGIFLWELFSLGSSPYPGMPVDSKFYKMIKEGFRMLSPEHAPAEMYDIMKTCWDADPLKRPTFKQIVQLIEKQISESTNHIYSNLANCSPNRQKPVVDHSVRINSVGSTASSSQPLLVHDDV
Outline: as §1

[12] = biological target: MAP4K2 (Homo sapiens, UniProt Q12851)
Outline: as §1

[13] = biological target: MAP4K5 (Homo sapiens, UniProt Q9Y4K4)
Outline: as §1

[14] = biological target: MET(Y1235D) (Homo sapiens, UniProt P08581, Y1235D)
Outline: as §1

[15] = biological target: PIK3CA(Q546K) (Homo sapiens, UniProt P42336, Q546K)
Outline: as §1

[16] = biological target: PRKG2 (Homo sapiens, UniProt Q13237)
Outline: as §1

[17] = biological target: T4, RPS6KA4(Kin.Dom.1-N-terminal) (Homo sapiens, UniProt O75676)
T4 construct: Kin.Dom.1-N-terminal
Outline: as §1

[18] = biological target: T5, SIK (Homo sapiens, UniProt P57059)
T5 construct: gene SIK1
Outline: as §1

[19] = biological target: SRC (Homo sapiens, UniProt P12931)
SRC, sequence (P12931 whole entry): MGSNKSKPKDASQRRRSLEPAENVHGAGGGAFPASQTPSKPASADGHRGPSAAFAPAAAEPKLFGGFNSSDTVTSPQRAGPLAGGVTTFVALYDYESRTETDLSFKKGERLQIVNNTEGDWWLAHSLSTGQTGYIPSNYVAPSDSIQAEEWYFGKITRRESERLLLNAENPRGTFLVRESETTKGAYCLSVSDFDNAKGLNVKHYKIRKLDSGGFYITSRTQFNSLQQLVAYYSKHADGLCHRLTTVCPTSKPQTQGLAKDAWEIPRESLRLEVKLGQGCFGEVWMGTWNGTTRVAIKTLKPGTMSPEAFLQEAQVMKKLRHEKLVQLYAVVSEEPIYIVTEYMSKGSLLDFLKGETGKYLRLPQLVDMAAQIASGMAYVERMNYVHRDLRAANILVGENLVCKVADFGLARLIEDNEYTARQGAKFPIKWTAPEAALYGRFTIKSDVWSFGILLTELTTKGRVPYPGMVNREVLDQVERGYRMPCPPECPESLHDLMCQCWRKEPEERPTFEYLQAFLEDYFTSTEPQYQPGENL
Outline: as §1

[20] = biological target: T6, TAK1 (Homo sapiens, UniProt O43318)
T6 construct: gene MAP3K7
T6 sequence (O43318 whole entry): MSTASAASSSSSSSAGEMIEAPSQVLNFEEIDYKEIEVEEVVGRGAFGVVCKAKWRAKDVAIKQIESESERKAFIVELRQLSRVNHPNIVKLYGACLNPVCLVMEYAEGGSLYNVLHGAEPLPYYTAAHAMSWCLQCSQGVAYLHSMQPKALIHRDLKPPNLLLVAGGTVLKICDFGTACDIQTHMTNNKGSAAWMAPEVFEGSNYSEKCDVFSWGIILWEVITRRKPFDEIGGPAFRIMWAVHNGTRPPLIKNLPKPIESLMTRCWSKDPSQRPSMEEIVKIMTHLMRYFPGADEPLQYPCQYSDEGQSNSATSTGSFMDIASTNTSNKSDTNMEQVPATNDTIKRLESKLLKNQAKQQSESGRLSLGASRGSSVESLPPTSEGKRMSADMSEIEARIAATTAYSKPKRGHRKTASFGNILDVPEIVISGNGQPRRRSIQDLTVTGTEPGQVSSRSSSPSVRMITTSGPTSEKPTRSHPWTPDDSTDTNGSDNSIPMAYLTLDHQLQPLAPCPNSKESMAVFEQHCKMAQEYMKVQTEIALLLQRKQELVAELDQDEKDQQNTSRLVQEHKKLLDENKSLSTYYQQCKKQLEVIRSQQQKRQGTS
Outline: as §1

[21] = biological target: TLK2 (Homo sapiens, UniProt Q86UE8)
Outline: as §1

[22] = biological target: T7, VPS34 (Homo sapiens, UniProt Q8NEB9)
T7 construct: gene PIK3C3
Outline: as §1

[23] = biological target: WNK2 (Homo sapiens, UniProt Q9Y3S1)
WNK2, sequence (Q9Y3S1 whole entry): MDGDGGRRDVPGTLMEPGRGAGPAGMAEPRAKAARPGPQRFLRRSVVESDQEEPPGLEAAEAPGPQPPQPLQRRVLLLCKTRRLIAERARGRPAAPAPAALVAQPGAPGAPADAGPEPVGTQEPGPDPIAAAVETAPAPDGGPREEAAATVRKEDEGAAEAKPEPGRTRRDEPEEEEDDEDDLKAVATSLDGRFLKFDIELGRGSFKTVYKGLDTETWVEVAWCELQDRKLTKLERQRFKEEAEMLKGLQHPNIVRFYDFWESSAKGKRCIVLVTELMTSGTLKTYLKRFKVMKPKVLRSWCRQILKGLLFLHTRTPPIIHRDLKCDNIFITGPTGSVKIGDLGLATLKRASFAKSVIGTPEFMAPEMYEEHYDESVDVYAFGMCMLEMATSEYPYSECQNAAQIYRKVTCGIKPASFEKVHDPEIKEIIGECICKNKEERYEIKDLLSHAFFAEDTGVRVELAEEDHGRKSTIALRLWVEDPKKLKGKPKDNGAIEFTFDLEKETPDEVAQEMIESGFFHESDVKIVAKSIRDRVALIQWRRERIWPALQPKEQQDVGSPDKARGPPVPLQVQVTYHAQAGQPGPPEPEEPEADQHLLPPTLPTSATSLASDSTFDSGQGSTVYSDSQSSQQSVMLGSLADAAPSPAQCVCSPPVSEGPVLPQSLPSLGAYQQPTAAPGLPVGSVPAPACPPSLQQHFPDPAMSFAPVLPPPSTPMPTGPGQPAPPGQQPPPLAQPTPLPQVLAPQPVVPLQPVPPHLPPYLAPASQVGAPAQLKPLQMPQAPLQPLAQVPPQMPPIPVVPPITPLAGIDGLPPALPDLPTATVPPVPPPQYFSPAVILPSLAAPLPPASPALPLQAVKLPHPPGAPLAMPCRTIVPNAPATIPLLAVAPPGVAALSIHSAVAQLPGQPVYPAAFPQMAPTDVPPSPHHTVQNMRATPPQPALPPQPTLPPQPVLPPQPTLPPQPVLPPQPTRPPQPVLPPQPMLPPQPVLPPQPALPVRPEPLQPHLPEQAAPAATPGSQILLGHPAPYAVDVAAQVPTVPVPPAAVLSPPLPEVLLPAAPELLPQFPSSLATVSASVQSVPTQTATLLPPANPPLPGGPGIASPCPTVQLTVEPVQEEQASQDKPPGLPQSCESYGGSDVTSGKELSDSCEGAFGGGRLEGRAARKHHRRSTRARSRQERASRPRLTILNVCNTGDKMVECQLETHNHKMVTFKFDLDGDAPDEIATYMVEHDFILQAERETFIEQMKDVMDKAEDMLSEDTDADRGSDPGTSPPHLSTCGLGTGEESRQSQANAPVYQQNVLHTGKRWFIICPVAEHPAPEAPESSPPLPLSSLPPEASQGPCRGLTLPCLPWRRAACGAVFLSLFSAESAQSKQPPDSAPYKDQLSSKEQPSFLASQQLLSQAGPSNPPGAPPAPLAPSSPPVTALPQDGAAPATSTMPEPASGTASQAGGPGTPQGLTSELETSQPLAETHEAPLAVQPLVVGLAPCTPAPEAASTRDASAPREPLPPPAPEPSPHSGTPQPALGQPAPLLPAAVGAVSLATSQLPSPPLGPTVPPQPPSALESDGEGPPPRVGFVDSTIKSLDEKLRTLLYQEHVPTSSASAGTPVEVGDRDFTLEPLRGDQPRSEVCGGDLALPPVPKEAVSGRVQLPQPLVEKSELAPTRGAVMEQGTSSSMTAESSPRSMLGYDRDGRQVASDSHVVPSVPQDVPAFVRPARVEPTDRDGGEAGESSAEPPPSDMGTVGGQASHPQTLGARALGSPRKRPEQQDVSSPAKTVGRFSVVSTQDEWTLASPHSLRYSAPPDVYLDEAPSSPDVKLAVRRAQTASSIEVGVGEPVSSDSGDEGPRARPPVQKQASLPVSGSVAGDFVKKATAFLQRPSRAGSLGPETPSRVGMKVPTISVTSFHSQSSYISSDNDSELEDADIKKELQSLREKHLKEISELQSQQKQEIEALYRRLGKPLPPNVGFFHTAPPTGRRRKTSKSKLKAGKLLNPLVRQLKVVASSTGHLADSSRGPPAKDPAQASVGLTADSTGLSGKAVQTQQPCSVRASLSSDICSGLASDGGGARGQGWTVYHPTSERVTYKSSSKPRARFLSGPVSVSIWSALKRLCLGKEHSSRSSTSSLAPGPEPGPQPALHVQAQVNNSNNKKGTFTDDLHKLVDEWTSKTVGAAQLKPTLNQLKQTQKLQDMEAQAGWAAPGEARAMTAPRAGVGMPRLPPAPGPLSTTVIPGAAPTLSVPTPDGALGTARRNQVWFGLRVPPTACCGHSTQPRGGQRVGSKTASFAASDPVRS
Outline: as §1

[24] = biological target: T8, p38-gamma (Homo sapiens, UniProt P53778)
T8 construct: gene MAPK12
Outline: as §1

CNS(=O)(=O)c1ccc(N(C)C)c(Nc2ncnc3cc(OC)c(OC)cc23)c1 [compound 7, 3-((6,7-dimethoxyquinazolin-4-yl)amino)-4-(dimethylamino)-N-methylbenzenesulfonamide]
inhibition at 1 µM [1]: 0% | inhibition at 1 µM [2]: 0% | inhibition at 1 µM [3]: 0% | inhibition at 1 µM [4]: 0% | inhibition at 1 µM [5]: 11% | inhibition at 1 µM [6]: 0% | inhibition at 1 µM [7]: 0% | inhibition at 1 µM [8]: 0% | inhibition at 1 µM [9]: 0% | inhibition at 1 µM [10]: 0% | inhibition at 1 µM [11]: 100% | inhibition at 1 µM [12]: 41% | inhibition at 1 µM [13]: 0% | inhibition at 1 µM [14]: 33% | inhibition at 1 µM [15]: 36% | inhibition at 1 µM [16]: 14% | inhibition at 1 µM [17]: 4% | inhibition at 1 µM [18]: 17% | inhibition at 1 µM [19]: 0% | inhibition at 1 µM [20]: 51% | inhibition at 1 µM [21]: 0% | inhibition at 1 µM [22]: 18% | inhibition at 1 µM [23]: 0% | inhibition at 1 µM [24]: 0%

From paper PMC7180948, “New Insights into 4-Anilinoquinazolines as Inhibitors of Cardiac Troponin I–Interacting Kinase (TNNi3K)” (Molecules, 2020)
